From patent US20240246964A1 (Arbutus Biopharma Corporation, priority 2021, published 2024)

Legend:
[1] = target: PD-L1 His protein / PD-1 Fc protein (Homo sapiens (Human), UniProt Q9NZQ7); assay: HTRF Assay (PD-1/PD-L1 interaction); type: binding; conditions: PD-L1 His 6 nM, PD-1 Fc 6 nM
human PD-L1 = human PD-L1 (Homo sapiens (Human), UniProt Q9NZQ7); assay: T cell activation luciferase reporter cell culture system (T Cell Activation Assay); type: cell-based; conditions: luciferase reporter assay; PD-L1 aAPC/CHO-K1 cells with PD-1 effector Jurkat T cells
Sequence of human PD-L1 (Q9NZQ7 19-290): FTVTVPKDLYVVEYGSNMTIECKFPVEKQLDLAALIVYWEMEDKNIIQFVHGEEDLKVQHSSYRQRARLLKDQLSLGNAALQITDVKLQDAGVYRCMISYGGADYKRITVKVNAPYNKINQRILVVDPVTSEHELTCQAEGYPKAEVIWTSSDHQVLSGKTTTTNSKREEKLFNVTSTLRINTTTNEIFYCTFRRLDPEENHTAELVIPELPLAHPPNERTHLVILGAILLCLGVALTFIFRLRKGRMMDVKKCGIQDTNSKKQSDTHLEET

Sequence of PD-L1 His protein / PD-1 Fc protein (Q9NZQ7 19-238): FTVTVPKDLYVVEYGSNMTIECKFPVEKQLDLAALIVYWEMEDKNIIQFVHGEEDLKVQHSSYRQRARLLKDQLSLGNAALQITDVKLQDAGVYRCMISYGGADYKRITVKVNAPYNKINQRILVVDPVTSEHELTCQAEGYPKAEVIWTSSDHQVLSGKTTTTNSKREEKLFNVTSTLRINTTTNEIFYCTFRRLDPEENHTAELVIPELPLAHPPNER

Row | Structure (SMILES) | IC50 [1] [nM] | EC50 (human PD-L1) [nM]
1 | COc1nc(-c2cccc(-c3ccnc(-c4cc5c(=O)n(C)c(CNC[C@@H]6CCC(=O)N6)nn5c4)c3Cl)c2Cl)ccc1CNC[C@@H]1CCC(=O)N1 [Compound 103, 6-(3-chloro-4-(2-chloro-3-(6-methoxy-5-(((((S)-5-oxopyrrolidin-2-yl)methyl)amino)methyl)pyridin-2-yl)phenyl)pyridin-2-yl)-3-methyl-2-(((((S)-5-oxopyrrolidin-2-yl)methyl)amino)methyl)pyrrolo[2,1-f][1,2,4]triazin-4(3H)-one] | 0.7 | 304
2 | COc1cc(-c2nccc(-c3cccc(-c4ccc(C5=NCCN5)c(OC)n4)c3Cl)c2Cl)ccc1C1=NCCN1 [Compound 106, 3-chloro-4-(2-chloro-3-(5-(4,5-dihydro-1H-imidazol-2-yl)-6-methoxypyridin-2-yl)phenyl)-2-(4-(4,5-dihydro-1H-imidazol-2-yl)-3-methoxyphenyl)pyridine] | 1.4 | 123
3 | COc1nc(-c2cccc(-c3ccnc(-c4cc5c(=O)n(C)c(CN6CC(C)(O)C6)nn5c4)c3Cl)c2Cl)ccc1CNC[C@@H]1CCC(=O)N1 [Compound 110, (S)-6-(3-chloro-4-(2-chloro-3-(6-methoxy-5-((((5-oxopyrrolidin-2-yl)methyl)amino)methyl)pyridin-2-yl)phenyl)pyridin-2-yl)-2-((3-hydroxy-3-methylazetidin-1-yl)methyl)-3-methylpyrrolo[2,1-f][1,2,4]triazin-4(3H)-one] | 0.9 | 60.5
4 | COc1nc(-c2cccc(-c3ccnc(-c4cc5c(=O)n(C)c(CNC(C)C)nn5c4)c3Cl)c2Cl)ccc1CNC[C@@H]1CCC(=O)N1 [Compound 111, (S)-6-(3-chloro-4-(2-chloro-3-(6-methoxy-5-((((5-oxopyrrolidin-2-yl)methyl)amino)methyl)pyridin-2-yl)phenyl)pyridin-2-yl)-2-((isopropylamino)methyl)-3-methylpyrrolo[2,1-f][1,2,4]triazin-4(3H)-one] | 2.2 | 263
5 | COc1cc(-c2nccc(-c3cccc(-c4ccc(CNC[C@@H]5CCC(=O)N5)c(OC)n4)c3Cl)c2Cl)cc(C)c1CNC[C@H](C)O [Compound 114, (S)-5-((((6-(2-chloro-3-(3-chloro-2-(4-((((S)-2-hydroxypropyl)amino)methyl)-3-methoxy-5-methylphenyl)pyridin-4-yl)phenyl)-2-methoxypyridin-3-yl)methyl)amino)methyl)pyrrolidin-2-one] | 0.9 | 81.2
6 | COc1cc(-c2nccc(-c3cccc(-c4ccc(CNC[C@@H]5CCC(=O)N5)c(OC)n4)c3Cl)c2Cl)cc(C)c1CNC[C@@H]1CCC(=O)N1 [Compound 115, (S)-5-((((6-(2-chloro-3-(3-chloro-2-(3-methoxy-5-methyl-4-(((((S)-5-oxopyrrolidin-2-yl)methyl)amino)methyl)phenyl)pyridin-4-yl)phenyl)-2-methoxypyridin-3-yl)methyl)amino)methyl)pyrrolidin-2-one] | 1.1 | 36.3
7 | COc1nc(-c2cccc(-c3ccnc(-c4ccc5c(c4)CNC5)c3Cl)c2Cl)ccc1CNC[C@@H]1CCC(=O)N1 [Compound 116, (S)-5-((((6-(2-chloro-3-(3-chloro-2-(isoindolin-5-yl)pyridin-4-yl)phenyl)-2-methoxypyridin-3-yl)methyl)amino)methyl)pyrrolidin-2-one] | 0.9 | 64.9
8 | COc1cc(-c2nccc(-c3cccc(-c4ccc(CNC[C@@H]5CCC(=O)N5)c(OC)n4)c3Cl)c2Cl)cc(C)c1CN(C)C[C@@H]1CCC(=O)N1 [Compound 117, (S)-5-((((6-(2-chloro-3-(3-chloro-2-(3-methoxy-5-methyl-4-((methyl(((S)-5-oxopyrrolidin-2-yl)methyl)amino)methyl)phenyl)pyridin-4-yl)phenyl)-2-methoxypyridin-3-yl)methyl)amino)methyl)pyrrolidin-2-one] | 1.3 | 30.7
9 | COc1cc(-c2nccc(-c3cccc(-c4ccc(CNC[C@@H]5CCC(=O)N5)c(OC)n4)c3Cl)c2Cl)cc(C)c1CN(C)C[C@H](C)O [Compound 118, (S)-5-((((6-(2-chloro-3-(3-chloro-2-(4-((((S)-2-hydroxypropyl)(methyl)amino)methyl)-3-methoxy-5-methylphenyl)pyridin-4-yl)phenyl)-2-methoxypyridin-3-yl)methyl)amino)methyl)pyrrolidin-2-one] | 1.6 | 44.1
10 | COc1nc(-c2ccnc(-c3cccc4c3CC[C@@H]4Oc3nc(OC)c(CNC[C@H](C)O)cc3C(F)(F)F)c2Cl)ccc1CNC[C@@H]1CCC(=O)N1 [Compound 128, (S)-5-((((3′-chloro-2′-((S)-1-((5-((((S)-2-hydroxypropyl)amino)methyl)-6-methoxy-3-(trifluoromethyl)pyridin-2-yl)oxy)-2,3-dihydro-1H-inden-4-yl)-6-methoxy-[2,4′-bipyridin]-5-yl)methyl)amino)methyl)pyrrolidin-2-one] | 0.542 | 9.11
11 | COc1nc(-c2ccnc(-c3cccc4c3CC[C@@H]4Oc3nc(OC)c(CNC4(C(=O)O)CC4)cc3C(F)(F)F)c2Cl)ccc1CNC[C@@H]1CCC(=O)N1 [Compound 129, 1-(((6-(((S)-4-(3′-chloro-6-methoxy-5-(((((S)-5-oxopyrrolidin-2-yl)methyl)amino)methyl)-[2,4′-bipyridin]-2′-yl)-2,3-dihydro-1H-inden-1-yl)oxy)-2-methoxy-5-(trifluoromethyl)pyridin-3-yl)methyl)amino)cyclopropane-1-carboxylic acid] | 0.305 | 16.4
12 | COc1cc(-c2nccc(-c3cccc(-c4ccc(CNC[C@@H]5CCC(=O)N5)c(OC)n4)c3Cl)c2Cl)ccc1CN[C@@H](C)C(=O)O [Compound 130, (4-(3-chloro-4-(2-chloro-3-(6-methoxy-5-(((((S)-5-oxopyrrolidin-2-yl)methyl)amino)methyl)pyridin-2-yl)phenyl)pyridin-2-yl)-2-methoxybenzyl)-L-alanine] | 0.209 | 158
13 | COc1cc(-c2nccc(-c3cccc(-c4cc(F)c(CNC[C@@H]5CCC(=O)N5)c(OC)n4)c3Cl)c2Cl)cc2c1CN(C[C@@H](C)O)CC2 [Compound 131, (S)-5-((((6-(2-chloro-3-(3-chloro-2-(2-((R)-2-hydroxypropyl)-8-methoxy-1,2,3,4-tetrahydroisoquinolin-6-yl)pyridin-4-yl)phenyl)-4-fluoro-2-methoxypyridin-3-yl)methyl)amino)methyl)pyrrolidin-2-one] | 0.662 | 35.4
14 | COc1cc(-c2nccc(-c3cccc(-c4cc(F)c(CNC[C@@H]5CCC(=O)N5)c(OC)n4)c3Cl)c2Cl)cc2c1CN(CCO)CC2 [Compound 132, (S)-5-((((6-(2-chloro-3-(3-chloro-2-(2-(2-hydroxyethyl)-8-methoxy-1,2,3,4-tetrahydroisoquinolin-6-yl)pyridin-4-yl)phenyl)-4-fluoro-2-methoxypyridin-3-yl)methyl)amino)methyl)pyrrolidin-2-one] | 0.408 | 51.2
15 | COc1cc(-c2nccc(-c3cccc(-c4ccc(CNC[C@@H]5CCC(=O)N5)c(OC)n4)c3Cl)c2Cl)ccc1CNC1(C(=O)OC(C)C)CC1 [Compound 135, isopropyl (S)-1-((4-(3-chloro-4-(2-chloro-3-(6-methoxy-5-((((5-oxopyrrolidin-2-yl)methyl)amino)methyl)pyridin-2-yl)phenyl)pyridin-2-yl)-2-methoxybenzyl)amino)cyclopropane-1-carboxylate] | 31.2 | ≥ 10000
